Test results from the supplement of paper PMC11616607.

Columns and labels:
Assay in all cases: drug sensitivity score (DSS) from 5-point dose-response viability curve (DSS (area-under-curve based score)); higher = more sensitive (stronger growth inhibition or killing); extreme values may be limits of the assay
Details in all cases: exposure time: 72 h; concentration range: 5 concentrations over 10,000-fold range
Kuramochi = system: Kuramochi
How it was run: (§1)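 Each cell line and drug received a drug sensitivity score from Breeze software, where higher means more sensitive. Zero stands for no response. Scores came from CellTiter-Glo viability readings of ovarian cancer and normal ovarian cells, 1,500 per well in 384-well plates, after 3 days at 37°C, 5% CO2 with drugs at five concentrations over a 10,000-fold range.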

OVCAR8 = system: OVCAR8
How it was run: as §1

Ovsaho = system: Ovsaho
How it was run: as §1

OVCAR4 = system: OVCAR4
How it was run: as §1

COV318 = system: COV318
How it was run: as §1

OV90 = system: OV90
How it was run: as §1

COV362 = system: COV362
How it was run: as §1

HOSE2C = system: HOSE2C
How it was run: as §1

HOSE1C = system: HOSE1C
How it was run: as §1

OVCAR5 = system: OVCAR5
How it was run: as §1

CAOV3 = system: CAOV3
How it was run: as §1

JHOS2 = system: JHOS2
How it was run: as §1

Structure (SMILES) | drug sensitivity score (Kuramochi) | drug sensitivity score (OVCAR8) | drug sensitivity score (Ovsaho) | drug sensitivity score (OVCAR4) | drug sensitivity score (COV318) | drug sensitivity score (OV90) | drug sensitivity score (COV362) | drug sensitivity score (HOSE2C) | drug sensitivity score (HOSE1C) | drug sensitivity score (OVCAR5) | drug sensitivity score (CAOV3) | drug sensitivity score (JHOS2)
O=c1[nH]c(=O)n([C@H]2C[C@H](O)[C@@H](CO)O2)cc1F [Floxuridine] | 8.7 | 18.1 | 6.2 | 9.3 | 0 | 12.3 | 5.4 | 2.5 | 4.7 | 8.1 | 14.3 | 0.8
Nc1cccc2c1CN(C1CCC(=O)NC1=O)C2=O (stereo not given) [Lenalidomide] | 0.2 | 0 | 0 | 0 | 0 | 0 | 0 | 0 | 0 | 0 | 0 | 0.1
CCc1nc(C(N)=O)c(Nc2ccc(N3CCC(N4CCN(C)CC4)CC3)c(OC)c2)nc1NC1CCOCC1 [Gilteritinib] | 0.7 | 0.4 | 0 | 0.1 | 0.6 | 2.2 | 0.4 | 0 | 0 | 4.9 | 3.9 | 0
COc1cc(NS(C)(=O)=O)ccc1Nc1c2ccccc2nc2ccccc12 [Amsacrine] | 0 | 10 | 5.5 | 0.2 | 0.6 | 7.3 | 1 | 16.7 | 13.7 | 6 | 13.7 | 3.8
O=c1[nH]c(C2CCCN2)nc2c1oc1ccc(Cl)cc12 (stereo not given) | 0 | 0 | 0 | 0 | 0 | 0.2 | 0 | 0.9 | 2.6 | 4 | 3.5 | 0
O=C(Nc1cccc(NC(=O)c2cccc(O)c2O)c1)c1cccc(O)c1O [MST-312] | 5.5 | 13.9 | 9.7 | 7.2 | 5.4 | 7.6 | 5.1 | 10.5 | 11.9 | 5 | 6.7 | 9.4
Cc1c(N)nc([C@H](CC(N)=O)NC[C@H](N)C(N)=O)nc1C(=O)N[C@H](C(=O)N[C@H](C)[C@@H](O)[C@H](C)C(=O)N[C@H](C(=O)NCCc1nc(-c2nc(C(=O)NCCC[S+](C)C)cs2)cs1)[C@@H](C)O)[C@@H](OC1OC(CO)C(O)C(O)C1OC1OC(CO)C(O)C(OC(N)=O)C1O)c1cnc[nH]1 (stereo not given in full) [Bleomycin] | 0 | 5.6 | 1 | 0.6 | 0 | 2.6 | 0 | 4.5 | 2.8 | 2.3 | 2.2 | 0.8
Nc1ncn([C@H]2C[C@H](O)[C@@H](CO)O2)c(=O)n1 [Decitabine] | 0 | 2.8 | 0 | 2.8 | 0 | 0 | 0 | 0.5 | 0 | 2.4 | 2.3 | 0
CCCCOc1nc(N)c2c(n1)N(Cc1cccc(CN3CCCC3)c1)CC(=O)N2 [Vesatolimod] | 1 | 0 | 0 | 0.4 | 0 | 0 | 0 | 0 | 0 | 0 | 0 | 0
C[C@]12CC[C@H](O)CC1=CC[C@@H]1[C@@H]2CC[C@]2(C)C(c3cccnc3)=CC[C@@H]12 [Abiraterone] | 0 | 0 | 0 | 0.3 | 0 | 0.5 | 0 | 0 | 0.1 | 0 | 0 | 0
CCNc1nc(Nc2cc(F)c(C(=O)N3CCOCC3)cc2OC)ncc1C(F)(F)F [GNE-7915] | 0 | 0 | 0 | 0 | 0 | 0 | 0 | 0 | 0 | 0 | 0 | 0
O=C(c1ccc(F)c(F)c1Nc1ccc(I)cc1F)N1CC(O)([C@@H]2CCCCN2)C1 [Cobimetinib] | 4.6 | 2.4 | 8.9 | 1.4 | 0 | 25.7 | 3.5 | 3 | 0.9 | 8.8 | 8.5 | 4
COc1cc2c(Nc3ccc(Cl)c(Cl)c3F)ncnc2cc1OC[C@@H]1C[C@@H]2CN(C)C[C@@H]2C1 [Tesevatinib] | 1.2 | 1.3 | 2.2 | 1.6 | 0 | 0 | 0.9 | 0 | 1.6 | 5 | 8.4 | 0.1
Cc1sc2c(c1C)C(c1ccc(Cl)cc1)=N[C@@H](CC(=O)Nc1ccc(OCCOCCOCCOCCNc3cccc4c3C(=O)N(C3CCC(=O)NC3=O)C4=O)cc1)c1nnc(C)n1-2 (stereo not given in full) [ARV-825] | 9.9 | 15.5 | 10 | 8.2 | 5.2 | 6.7 | 1.5 | 7.9 | 17.3 | 7.9 | 5.4 | 4.6
CNC(=O)c1ccccc1Nc1nc(Nc2ccc3c(c2OC)CCC[C@H](N2CCN(CCO)CC2)C3)ncc1Cl | 6.4 | 4.9 | 8.5 | 5.2 | 5.2 | 8.8 | 5.4 | 8.4 | 4.8 | 9.1 | 8.2 | 7.6
CC(C)(O)CC(=O)NCCn1ccc2ncnc(Nc3ccc(Oc4cccc(C(F)(F)F)c4)c(Cl)c3)c21 [TAK-285] | 0.9 | 0.1 | 0.2 | 0 | 0 | 0 | 0.2 | 0 | 0 | 2 | 2.5 | 0
Cc1ccc(NS(=O)(=O)c2cccc(C#N)c2)c2[nH]cc(C#N)c12 [E7820] | 0.8 | 3.3 | 1.2 | 4.4 | 2.8 | 2.7 | 0 | 5 | 7.3 | 3.3 | 4.8 | 10.7
COc1ccc(-c2ccc3ncc4c(c3c2)n(-c2ccc(N3CCNCC3)c(C(F)(F)F)c2)c(=O)n4C)cn1 [NVP-BGT226] | 10.2 | 14.9 | 15.6 | 13.6 | 9.3 | 17.2 | 4.6 | 15.7 | 22.2 | 14.6 | 12.7 | 11.6
S=C(NCc1ccc2c(c1)OCO2)N1CCN(c2ncnc3c2oc2ccccc23)CC1 [Amuvatinib] | 0.2 | 7.9 | 0.1 | 0.9 | 0.1 | 3.2 | 0 | 0 | 0 | 1.8 | 2.1 | 0
Cc1noc2c1-c1ccccc1C(c1ccc(Cl)cc1)=N[C@H]2CC(N)=O [CPI-0610] | 13 | 6.4 | 12.6 | 5 | 4.1 | 7.6 | 5.9 | 9.9 | 9.3 | 9.3 | 8.5 | 5
CC(C)(C)NC(=O)[C@H]1CC[C@H]2[C@@H]3CC[C@H]4NC(=O)C=C[C@]4(C)[C@H]3CC[C@]12C [Finasteride] | 0 | 0 | 0 | 0 | 0 | 0 | 0 | 0 | 0 | 0 | 0 | 0
CCCCC(=O)OCC(=O)[C@]1(O)Cc2c(O)c3c(c(O)c2[C@@H](O[C@H]2C[C@H](NC(=O)C(F)(F)F)[C@H](O)[C@H](C)O2)C1)C(=O)c1c(OC)cccc1C3=O [Valrubicin] | 6.6 | 9.5 | 10.9 | 3.8 | 4.4 | 7.7 | 2.4 | 8.3 | 10.1 | 6.2 | 10.8 | 6.6
CC(C)n1cnc2c(NCCc3ccc(O)cc3)nc(-c3csc4ccccc34)nc21 [StemRegenin 1] | 1.3 | 1.6 | 1.8 | 1.1 | 1.1 | 1.2 | 2 | 2.2 | 3.8 | 4.2 | 0 | 1
CN(C)CCOc1ccc(/C(=C(/CCCl)c2ccccc2)c2ccccc2)cc1 [Toremifene] | 3.5 | 2.9 | 3.5 | 2 | 2.3 | 5.3 | 0.6 | 1.6 | 3.5 | 4.9 | 1.8 | 2
Cn1cnc2c(F)c(Nc3ccc(Br)cc3F)c(C(=O)NOCCO)cc21 [Binimetinib] | 3.5 | 0 | 6.2 | 1.7 | 0 | 13.4 | 1.3 | 0 | 0 | 7.1 | 7.6 | 1.5
Cc1[nH]nc(C(F)(F)F)c1Cc1sc2c(c1C(=O)N1C[C@](C)(O)CO1)c(=O)n(C)c(=O)n2C(C)C [AZD3965] | 0 | 0 | 0.8 | 0 | 0 | 4.2 | 0 | 0 | 0 | 0 | 0 | 0
Cc1cccc(CC(=O)N2CCc3c2ccc(-c2cn(C)c4ncnc(N)c24)c3F)n1 | 0.2 | 1.5 | 0 | 1.1 | 0 | 0 | 0 | 0 | 0 | 0 | 0.4 | 0
CC(C)NC[C@@H](C(=O)N1CCN(c2ncnc3c2[C@H](C)C[C@H]3O)CC1)c1ccc(Cl)cc1 [Ipatasertib] | 2.6 | 0.5 | 1.6 | 0 | 0.1 | 0.5 | 0 | 4.4 | 2.7 | 3 | 1.9 | 0.1
C=CC(=O)N1CCC[C@@H](n2nc(-c3ccc(Oc4ccccc4)cc3)c3c(N)ncnc32)C1 [Ibrutinib] | 2.8 | 0 | 2.5 | 1.5 | 0 | 0 | 0.5 | 0 | 0 | 3.1 | 3 | 0
CC(=O)[C@]1(O)Cc2c(O)c3c(c(O)c2[C@@H](O[C@H]2C[C@H](N)[C@H](O)[C@H](C)O2)C1)C(=O)c1ccccc1C3=O [Idarubicin] | 5.1 | 10.3 | 11.7 | 6.3 | 6.1 | 10.7 | 4.8 | 13.7 | 14.2 | 7.7 | 12 | 7.1
